PMC12345137 (mBio, 2025)
Positions of bridges follow the written chain, without caps; N, C: chain ends. Residues, ends and D or L forms follow the SMILES beside them.

Test system: methicillin resistant S. aureus (MRSA43484)
Assay type: in vivo, Balb/c female mice
Protocol: The mouse model was performed under contract at Statens Serum Institut (DK) essentially as previously described ([64]). […] All animal experiments were approved by the National Committee of Animal Ethics, Denmark. Mice were anesthetized, and the hair was removed on a 2 cm^2 skin area on the back, and thereafter, the outermost layer of the skin was scraped off with a dermal curette to obtain a 1 cm^2 superficial skin lesion. For vehicle control and Fucidin treatment, 10 μL inoculum containing approximately 10^7 CFU of methicillin resistant S. aureus (MRSA43484) were spread on the skin lesions. […] This leads to the absolute application of 1 nmol, corresponding to ~10-fold less inhibitory AIP than previously tested in other murine epicutaneous infection models ([12], [13], [15]). After the inoculum had dried, the mice were placed in a cage and kept in a warming cabinet until fully awake. The topical skin treatment with Fucidin was initiated one day after inoculation (days 2, 3, and 4) by spreading 50 μL of Fucidin on the inoculated skin area once a day. Skin lesion size and body weight were measured on days 1, 2, and 4 of all mice. Mice were sacrificed on days 1 (n = 8 vehicle), 2 (n = 4 vehicle, Fucidin, 33), and 4 (n = 4 vehicle, Fucidin, 33), and the infected skin area was cut out and homogenized to determine the CFU count in the skin lesions. Statistical testing was conducted using one-way analysis of variance (ANOVA) with multiple comparisons (Dunnett’s test) and an alpha level of 0.05.

NCCCC[C@H](N)C(=O)N[C@@H](Cc1ccc(O)cc1)C(=O)N[C@@H](Cc1ccc(O)cc1)C(=O)N1CCC[C@H]1C(=O)N[C@H]1CSC(=O)[C@H](Cc2ccccc2)NC(=O)[C@H](Cc2ccc(O)cc2)NC(=O)CNC(=O)[C@H](Cc2c[nH]c3ccccc23)NC1=O [compound 33, S. simulans AIP-II] (H-KYYPCWGYF; thioester 5-C)
skin lesion size compared with the vehicle control after 48 h (33: 100 μM in MRSA inoculum (10^7 CFU), single, Fucidin daily, P = 0.0174 (33), P = 0.0108 (fusidic acid)): significant reduction | skin lesion size compared with the vehicle control after 96 h (33: 100 μM in MRSA inoculum (10^7 CFU), single, Fucidin daily, P = 0.0249 (33), P = 0.0202 (fusidic acid)): significant reduction | decrease in bacterial load compared with vehicle control after 4 days (33: 100 μM single (P = 0.009), fusidic acid daily (P = 0.0168)): ~ 60 fold
